pEC50: −log10 of the molar value. Where two headings read alike, the source gives them in different places.
Assays:
[1] = system: UVB-irradiated mice skin; assay: In vivo efficacy: skin melanin after UVB irradiation, intradermal injection or topical administration (Example 4B/4C); conditions: for Melanin Mean ± SD (UVB group = 100.0): treatment period 3 weeks
Source text: The IM01 formulation was investigated for in vivo efficacy via intradermal injection, either twice a week (IM01-ID/L) or once a day (IM01-ID/H). [table] The IM01 formulation was investigated for in vivo efficacy via topical administration (IM01-T), following the study design provided in Table 16 below. [table]

[2] = system: B16-F10 cell line; format: cell-based, mouse; conditions: for Relative cell viability (%): mouse
Source text: (§1) Table 23 below lists the study design for evaluating EC50 values of IM01, which contains 4-[(E)-2-(3,5-dihydroxyphenyl)ethenyl]benzene-1,3-diol.
(§2) Table 25 below lists the study design for evaluating EC50 values of IM01, which contains 4-[(E)-2-(3,5-dihydroxyphenyl)ethenyl]benzene-1,3-diol.

[3] = system: B16-F10 cells; assay: In vitro efficacy test: melanin content after α-MSH induction (Example 3); format: cell-based, mouse
Description: Alpha-melanocyte-stimulating hormone (α-MSH) is a peptide hormone capable of inducing melanin production. In this study, the effects of 4-[(E)-2-(3,5-dihydroxyphenyl)ethenyl]benzene-1,3-diol samples (having different concentrations of 4-[(E)-2-(3,5-dihydroxyphenyl)ethenyl]benzene-1,3-diol) on inhibition of melanin production were investigated.
B16-F10 cells were seeded in a 96-well plate at a density of 1×10^5 cells/well and cultured for 24 hours. The cells were then incubated with 0.1 μM α-MSH for 24 hours to include melanin production. The 4-[(E)-2-(3,5-dihydroxyphenyl)ethenyl]benzene-1,3-diol samples with different concentrations were then added to the cultured cells, which were cultured for an additional 24 hours. No α-MSH was used for the vehicle control group.
After the cells were washed once with 1 mL of 1×PBS, add 300 μL of 1×Trypsin-EDTA, they were placed in a 37° C. incubator for 5 minutes. Finally, 1 mL of DMEM was added to the cells, and the number of cells were counted by Trypan blue staining.
Cell suspension was centrifuged at 1500 g for 5 minutes at room temperature, followed by supernatant removal and air-dry of the pellet for 15 minutes. 1 N NaOH (containing 10% DMSO) was added to break up the pellet, followed by shaking by ultrasonic waves for 30 minutes and heating in a water bath at 80° C. for 1.5 hours. After cooling down, the suspension was taken and measured for absorbance at 405 nm. Results were calculated by deducting the reagent blank from the absorbance value at 405 nm and divided by the average absorbance value of the α-MSH Group.

[4] = system: B16-F10 cell line; assay: In vitro whitening efficacy: melanin content (Example 7); format: cell-based, mouse
Source text: as §1, §2

[5] = system: B16-F10 cells; assay: In vitro melanin content versus arbutin and hydroquinone (Example 6); format: cell-based, mouse
Description: Except the vehicle group, cells of the other groups were cultured with α-MSH for 24 hours first. The compositions for investigation (see Tables 19 and 20) were then added to the culture medium and the cells were further cultured for 24 hours. The rest of the experimental operation process was similar to that described in Example 3. […] [table] [table]

[6] = system: B16-F10 cells; assay: In vitro efficacy comparison: melanin content, α-MSH 0.5 h then test article 30 h (Example 5); format: cell-based, mouse; conditions: for Melanin content (%) Mean: α-MSH 0.5 h then TA 30 h
Description: B16-F10 cells were seeded in a 96-well plate. Except the vehicle group, cells of the other groups were cultured in the presence of α-MSH for 0.5 hours first. The compositions for examination were then added to the culture medium and the cells were further cultured for 30 hours. The rest of the experimental conditions and procedures were similar to those described in Example 3. Afterwards, the cells were collected to evaluate the effect of 4-[(E)-2-(3,5-dihydroxyphenyl)ethenyl]benzene-1,3-diol compositions (IM01 Group) and Arbutin and 5-[(E)-2-(4-hydroxyphenyl)ethenyl]benzene-1,3-diol (IM00 Group) compositions on reducing melanin levels. The experimental design is summarized in Table 18 and results shown in both Table 18 and FIG. 5.

[7] = system: HRM-2 mice; assay: In vivo efficacy: skin melanin content after UVB irradiation, different administration routes (Example 4A)
Source text: The experiment tested a total of 20 mice using conventional diets in the adaptation period, the induction period, and the test period. After 7 days of adaptation, the mice were randomly divided into a control group and a UVB-c group according to body weight and body weight changes, so that no statistical difference in average body weight and body weight changes were noticeable among the groups. The UVB-c group was subjected to 150 mJ/cm^2/day of UVB irradiation with a frequency of irradiating the back of the mice three times a week.
Injection frequency was once a week, three times in total, with an average injection area of 6 cm^2 skin each time. The IM01—Topical group and the color cream group were administered by smearing once a day for a total of 21 days. […] During the treatment period, the backs of the mice were irradiated with 150 mJ/cm^2/day of UVB three times a week until sacrificed. It should be noted that the timing of UVB exposure and drug administration were staggered.
After sacrificing the mice on day 22, the skin of treatment area was collected and subjected to heat extraction with 0.4 mL NaOH for 1 hour. […] The experimental data were expressed as mean±standard deviation (n=3-5), using Student's t-test analysis, #p<0.05, ##p<0.01 compared with control group; *p<0.05, **p<0.01 compared with UVB-c group.

[8] = IM01-ID/H: ID, 23 mg/mL, once a day
[9] = IM01-ID/L: ID, 23 mg/mL, twice a week
[10] = IM01-T: topical, 45 mg/mL, once a day
[11] = TA 60 μM (/L of IM01 and HQ), HQ vehicle DDW, Table 26
[12] = TA 120 μM (/H of IM01 and HQ), HQ vehicle DDW, Table 26

Oc1cc(O)cc(/C=C/c2ccc(O)cc2O)c1 [IM01, 4-[(E)-2-(3,5-dihydroxyphenyl)ethenyl]benzene-1,3-diol]
Reduction of melanin production [1, 8]: 23.1% | Melanin Mean ± SD (UVB group = 100.0) [1, 8]: 76.9 ± 12.7 | Reduction of melanin production [1, 9]: 13.9% | Melanin Mean ± SD (UVB group = 100.0) [1, 9]: 86.1 ± 14.5 | Reduction of melanin production [1, 10]: 21.4% | Melanin Mean ± SD (UVB group = 100.0) [1, 10]: 79.6 ± 12.5 | Cytotoxicity [2]: low cytotoxicity | Relative cell viability (%) ([2]; 8 μM): 98.4 ± 2.0% | Relative cell viability (%) ([2]; 16 μM): 96.7 ± 2.4% | Relative cell viability (%) ([2]; 32 μM): 98.7 ± 2.2% | Relative cell viability (%) ([2]; 60 μM): 88.5 ± 1.4% | Relative cell viability (%) ([2]; 64 μM): 93.0 ± 1.0% | Relative cell viability (%) ([2]; 120 μM): 84.9 ± 0.4% | Relative cell viability (%) ([2]; 128 μM): 89.8 ± 3.7% | Relative cell viability (%) ([2]; 181 μM): 79.9 ± 5.6% | Relative cell viability (%) ([2]; 256 μM): 74.6 ± 7.0% | Melanin production compared with vehicle group (without α-MSH) ([3]; IM01-C4, IM01-C5 and IM01-C6 groups (22.6, 32, 64 ppm)): lower than that of the vehicle group | pEC50 ([3]; Mus musculus, B16-F10, printed as equal to 15.2 ppm): 4.21 | Melanin Content Inhibition Ability (%) Mean ([3]; TA 8 ppm (IM01-C1)): 20.1% | Melanin content (%) Mean ([3]; TA 8 ppm (IM01-C1), α-MSH 0.1 μM 24 h then TA 24 h, relative to α-MSH control): 79.9% | Melanin Content Inhibition Ability (%) Mean ([3]; TA 11.3 ppm (IM01-C2)): 41.1% | Melanin content (%) Mean ([3]; TA 11.3 ppm (IM01-C2), α-MSH 24 h then TA 24 h): 58.9% | Melanin Content Inhibition Ability (%) Mean ([3]; TA 16 ppm (IM01-C3)): 56.8% | Melanin content (%) Mean ([3]; TA 16 ppm (IM01-C3), α-MSH 24 h then TA 24 h): 43.2% | Melanin Content Inhibition Ability (%) Mean ([3]; TA 22.6 ppm (IM01-C4)): 66.7% | Melanin content (%) Mean ([3]; TA 22.6 ppm (IM01-C4), α-MSH 24 h then TA 24 h): 33.3% | Melanin Content Inhibition Ability (%) Mean ([3]; TA 32 ppm (IM01-C5)): 74% | Melanin content (%) Mean ([3]; TA 32 ppm (IM01-C5), α-MSH 24 h then TA 24 h): 26.0% | Melanin Content Inhibition Ability (%) Mean ([3]; TA 64 ppm (IM01-C6)): 84.6% | Melanin content (%) Mean ([3]; TA 64 ppm (IM01-C6), α-MSH 24 h then TA 24 h): 15.4% | EC50 (melanin content) ([3]; α-MSH 24 h then TA 24 h): around 15.2 ppm | pEC50 ([4]; Mus musculus, B16-F10, α-MSH 24 hr + TA 24 hr, 4-256 μM, read-out: EC50 value (reduction of melanin levels induced by α-MSH)): ~4.39 | Melanin content (%) ([4]; TA 4 μM, α-MSH 24 hr + TA 24 hr, Table 24): 90.2 ± 6.1% | Melanin content (%) ([4]; TA 8 μM, Table 24): 83.2 ± 6.9% | Melanin content (%) ([4]; TA 16 μM, Table 24): 81.8 ± 4.5% | Melanin content (%) ([4]; TA 32 μM, Table 24): 67.7 ± 7.1% | Melanin content (%) [4, 11]: 51.7 ± 2.6% | Melanin content (%) ([4]; TA 64 μM, Table 24): 43.0 ± 4.3% | Melanin content (%) [4, 12]: 37.7 ± 0.4% | Melanin content (%) ([4]; TA 128 μM, Table 24): 36.1 ± 2.9% | Melanin content (%) ([4]; TA 181 μM, Table 24): 34.8 ±3.5% | Melanin content (%) ([4]; TA 256 μM, Table 24): 25.9 ± 1.5% | Melanin inhibition activity compared with arbutin ([4]; Table 25 concentrations, FIG. 7C): much greater than arbutin | Effect in reducing melanin compared with Arbutin (450 μM or 900 μM) and hydroquinone (120 μM) ([5]; 120 μM): better than that of the whitening agent Arbutin | Melanin content compared with vehicle group (no α-MSH induction) ([5]; 120 μM): even lower than that of the vehicle group | Melanin content (%) Mean ± SD ([5]; TA 30 μM, α-MSH 24 hr + TA 24 hr, Table 22 experiment): 84.6 ± 3.6% | Melanin content (%) Mean ± SD ([5]; TA 60 μM, Table 22 experiment): 52.8 ± 3.8% | Melanin content (%) Mean ± SD ([5]; TA 60 μM, α-MSH 24 hr + TA 24 hr, Table 21 experiment): 47.6 ± 3.4% | Melanin content (%) Mean ± SD ([5]; TA 120 μM, Table 21 experiment): 26.2 ± 2.4% | Melanin content (%) Mean ± SD ([5]; TA 120 μM, Table 22 experiment): 33.9 ± 1.4% | Melanin content (%) Mean ± SD ([5]; TA 180 μM, Table 22 experiment): 11.7 ± 2.3% | Melanin content (%) Mean ([6]; TA 89.19 μM (IM01-20)): 67.4% | Melanin content (%) Mean ([6]; TA 178.38 μM (IM01-40)): 43.5% | In vitro effect in reducing melanin relative to 5-[(E)-2-(4-hydroxyphenyl)ethenyl]benzene-1,3-diol and arbutin ([6]; Table 18 concentrations): better in vitro effects in reducing melanin | Skin color compared with UVB-c group ([7]; IM01-ID group and IM01-Topical group, intradermal injection or smearing): whiter and brighter than that of the UVB-c group | Melanin level lower than the UVB-c group by ([7]; IM01-ID group, intradermal, p<0.01): 33.6% | Percentage change of melanin Mean ± SD (% of UVB-c) ([7]; IM01-ID: intradermal, 20 mg/mL, 0.5 mg/cm^2, once a week): −33.6 ± 6.0 % of UVB-c | Melanin Content Mean ± SD (% of UVB-c) ([7]; IM01-ID: intradermal, 20 mg/mL, 0.5 mg/cm^2, once a week, three times, skin collected day 22): 66.4 ± 6.0 % of UVB-c | Melanin level lower than the UVB-c group by ([7]; IM01-Topical group, p<0.05): 30.6% | Percentage change of melanin Mean ± SD (% of UVB-c) ([7]; IM01-Topical: 20 mg/mL, 0.4-0.5 mg/cm^2, once a day): −30.6 ± 7.6 % of UVB-c | Melanin Content Mean ± SD (% of UVB-c) ([7]; IM01-Topical: 20 mg/mL, 0.4-0.5 mg/cm^2, once a day for 21 days, day 22): 69.4 ± 7.6 % of UVB-c

Oc1ccc(/C=C/c2cc(O)cc(O)c2)cc1 [IM00, 5-[(E)-2-(4-hydroxyphenyl)ethenyl]benzene-1,3-diol]
Melanin content (%) Mean ([6]; TA 87.62 μM (IM00-20)): 98.9%

Oc1ccc(O)cc1 [Hydroquinone, hydroquinone, reference compound]
Cytotoxicity [2]: high cytotoxicity | Relative cell viability (%) ([2]; 60 μM): 88.2 ± 6.0% | Melanin content (%) [4, 11]: 34.6 ± 2.8% | Melanin content (%) [4, 12]: 40.5 ± 3.7% | Melanin content (%) Mean ± SD ([5]; TA 120 μM, Table 21 experiment): 61.5 ± 4.6%

OC[C@H]1O[C@@H](Oc2ccc(O)cc2)[C@H](O)[C@@H](O)[C@@H]1O [Arbutin, reference compound]
Relative cell viability (%) ([2]; 450 μM): 100.8 ± 1.2% | Relative cell viability (%) ([2]; 900 μM): 93.7 ± 1.6% | Melanin content (%) ([4]; TA 450 μM (Arbutin/L), Table 26): 78.5 ± 1.1% | Melanin content (%) ([4]; TA 900 μM (Arbutin/H), Table 26): 67.0 ± 2.8% | Melanin content (%) Mean ± SD ([5]; TA 450 μM, Table 21 experiment): 76.1 ± 6.3% | Melanin content (%) Mean ± SD ([5]; TA 900 μM, Table 21 experiment): 60.9 ± 4.5% | Melanin content (%) Mean ± SD ([5]; TA 900 μM, Table 22 experiment): 62.8 ± 1.8% | Melanin content (%) Mean ± SD ([5]; TA 1800 μM, Table 22 experiment): 47.1 ± 0.3% | Melanin content (%) Mean ([6]; TA 918.27 μM): 95.8%
